Values after ≈ are worked out from the molar mass of the structure shown. Read-outs that look alike come from different tables or passages of the source.
What was measured:
Assay type in all cases: cell-based
[1] = system: Escherichia coli ATCC 25922; assay: Broth microdilution MIC, E. coli ATCC 25922 (MHIIB w & w/o 4 mM EDTA); details: broth microdilution, 37° C., 20 hours; for MIC: Escherichia coli, ATCC25922, without EDTA, read-out: MIC E. coli ATCC 25922; for MIC E. coli ATCC 25922 + 4 mM EDTA: with 4 mM EDTA
Outline: (§1)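 Broth microdilution in strain-specific test medium with ~5.0×10^5 cfu/ml inoculum, 1% DMSO and two-fold compound dilutions from 64 to 0.0625 μg/ml. Plates were held 20 hours at 37° C in ambient air. S. pneumoniae colonies were grown beforehand on blood agar in 5% CO2.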

[2] = system: Enterococcus faecalis ATCC 29212; assay: Broth microdilution MIC, E. faecalis ATCC 29212; details: ATCC29212, broth microdilution, 37° C., 20 hours, read-out: MIC E. faecalis ATCC 29212
Outline: as §1

[3] = system: Bacillus subtilis ATCC 6633; assay: Broth microdilution MIC, B. subtilis ATCC 6633; details: ATCC6633, broth microdilution, 37° C., 20 hours, read-out: MIC B. subtilis ATCC 6633
Outline: as §1

[4] = system: Streptococcus pneumoniae ATCC 49619; assay: Broth microdilution MIC, S. pneumoniae ATCC 49619; details: ATCC49619, broth microdilution, 37° C., 20 hours, read-out: MIC S. pneumoniae ATCC 49619
Outline: as §1

[5] = system: Staphylococcus aureus ATCC 29213 (MSSA); assay: Broth microdilution MIC, S. aureus ATCC 29213 (MSSA); details: broth microdilution, 37° C., 20 hours, read-out: MIC S. aureus ATCC 29213 (MSSA)
Outline: as §1

[6] = system: Staphylococcus aureus NRS384 (MRSA); assay: Broth microdilution MIC, S. aureus NRS384 (MRSA); details: Staphylococcus aureus, broth microdilution, 37° C., 20 hours
Outline: as §1

[7] = system: Enterococcus faecium ATCC 700221 (VRE); assay: Broth microdilution MIC, E. faecium ATCC 700221 (VRE); details: Enterococcus faecium, broth microdilution, 37° C., 20 hours
Outline: as §1

[8] = S. aureus NRS 384, read-out: MIC NRS 384 (MRSA)
[9] = read-out: MIC E. faecium ATCC 700221 (VRE)

Row | MIC [1] [µg/mL] | MIC E. coli ATCC 25922 + 4 mM EDTA [1] [µg/mL] | MIC [2] [µg/mL] | MIC [3] [µg/mL] | MIC [4] [µg/mL] | MIC [5] [µg/mL] | MIC [6, 8] [µg/mL] | MIC ([6]; MHIIB, read-out: MIC against S. aureus NRS 384 (MRSA)) [µg/mL] | MIC [7, 9] [µg/mL] | MIC ([7]; MHIIB, read-out: MIC against E. faecium ATCC 700221 (VRE)) [µg/mL] | SMILES
1 | > 64 | >64 | 8 (≈ 22.6 µM) | 2 (≈ 5.66 µM) | 4 (≈ 11.3 µM) | 4 (≈ 11.3 µM) | 4 (≈ 11.3 µM) |  | 4 (≈ 11.3 µM) |  | COCCn1nc(F)c2nc(NCc3ccc(F)c(F)c3)[nH]c(=O)c21 [Compound 308, 5-((3,4-Difluorobenzyl)amino)-3-fluoro-1-(2-methoxyethyl)-1H-pyrazolo[4,3-d]pyrimidin-7(6H)-one]
2 | > 64 | >64 | 16 (≈ 42.2 µM) | 8 (≈ 21.1 µM) | 32 (≈ 84.4 µM) | 16 (≈ 42.2 µM) | 16 (≈ 42.2 µM) |  | 16 (≈ 42.2 µM) |  | Cc1cc(CNc2nc3c(F)nn(CCOCCO)c3c(=O)[nH]2)ccc1F [Compound 311, 3-Fluoro-5-((4-fluoro-3-methylbenzyl)amino)-1-(2-(2-hydroxyethoxy)ethyl)-1H-pyrazolo[4,3-d]pyrimidin-7(6H)-one]
3 | > 64 | >64 | 16 (≈ 42.2 µM) | 2 (≈ 5.27 µM) | 8 (≈ 21.1 µM) | 8 (≈ 21.1 µM) | 16 (≈ 42.2 µM) |  | 8 (≈ 21.1 µM) |  | Cc1ccc(CNc2nc3c(F)nn(CCOCCO)c3c(=O)[nH]2)cc1F [Compound 313, 3-Fluoro-5-((3-fluoro-4-methylbenzyl)amino)-1-(2-(2-hydroxyethoxy)ethyl)-1H-pyrazolo[4,3-d]pyrimidin-7(6H)-one]
4 | > 64 | >64 | 8 (≈ 21.9 µM) | 1 (≈ 2.74 µM) | 2 (≈ 5.47 µM) | 4 (≈ 10.9 µM) | 4 (≈ 10.9 µM) |  | 2 (≈ 5.47 µM) |  | O=c1[nH]c(NCc2ccc(F)c(F)c2)nc2c(F)nn(CC3CCO3)c12 (centres unmarked) [Compound 315, 5-[(3,4-difluorophenyl)methylamino]-3-fluoro-1-(oxetan-2-ylmethyl)-6H-pyrazolo[4,3-d]pyrimidin-7-one]

More lines, now with the values behind:

Row | SMILES | MIC [1] [µg/mL] | MIC E. coli ATCC 25922 + 4 mM EDTA [1] [µg/mL] | MIC [2] [µg/mL] | MIC [3] [µg/mL] | MIC [4] [µg/mL] | MIC [5] [µg/mL] | MIC [6, 8] [µg/mL] | MIC ([6]; MHIIB, read-out: MIC against S. aureus NRS 384 (MRSA)) [µg/mL] | MIC [7, 9] [µg/mL] | MIC ([7]; MHIIB, read-out: MIC against E. faecium ATCC 700221 (VRE)) [µg/mL]
5 | O=c1[nH]c(NCc2ccc(Cl)c(Cl)c2)nc2c(Cl)nn(Cc3cocn3)c12 [Compound 307, 3-Chloro-5-((3,4-dichlorobenzyl)amino)-1-(oxazol-4-ylmethyl)-1H-pyrazolo[4,3-d]pyrimidin-7(6H)-one] | > 64 | >64 | 2 (≈ 4.7 µM) | 0.5 (≈ 1.17 µM) | 4 (≈ 9.4 µM) | 1 (≈ 2.35 µM) | 1 (≈ 2.35 µM) | ≤ 1 | 1 (≈ 2.35 µM) | ≤ 1
6 | O=c1[nH]c(NCc2ccc(F)c(F)c2)nc2c(Cl)nn(CCOCCO)c12 [Compound 309, 3-Chloro-5-[(3,4-difluorophenyl)methylamino]-1-[2-(2-hydroxyethoxy)ethyl]-6H-pyrazolo[4,3-d]pyrimidin-7-one] | > 64 | >64 | 32 (≈ 80 µM) | 8 (≈ 20 µM) | 8 (≈ 20 µM) | 16 (≈ 40 µM) | 16 (≈ 40 µM) |  | 16 (≈ 40 µM) | 
7 | CP(C)(=O)CCCCn1nc(F)c2nc(NCc3ccc(F)c(F)c3)[nH]c(=O)c21 [Compound 314, 5-[(3,4-Difluorophenyl)methylamino]-1-(4-dimethylphosphorylbutyl)-3-fluoro-6H-pyrazolo[4,3-d]pyrimidin-7-one] | > 64 | >64 | > 64 | 16 (≈ 37.4 µM) | 16 (≈ 37.4 µM) | 64 (≈ 150 µM) | 32 (≈ 74.9 µM) |  | 32 (≈ 74.9 µM) | 
8 | O=c1[nH]c(NCc2ccc(F)c(F)c2)nc2c(F)nn(Cc3cocn3)c12 [Compound 316, 5-((3,4-Difluorobenzyl)amino)-3-fluoro-1-(oxazol-4-ylmethyl)-1H-pyrazolo[4,3-d]pyrimidin-7(6H)-one] | > 64 | >64 | 8 (≈ 21.3 µM) | 2 (≈ 5.31 µM) | 2 (≈ 5.31 µM) | 4 (≈ 10.6 µM) | 2 (≈ 5.31 µM) |  | 4 (≈ 10.6 µM) | 
9 | O=C(c1cccnc1)N1CCC(n2nc(F)c3nc(NCc4ccc(Cl)c(Cl)c4)[nH]c(=O)c32)CC1 [Compound 317, 5-[(3,4-Dichlorophenyl)methylamino]-3-fluoro-1-[1-(pyridine-3-carbonyl)-4-piperidyl]-6H-pyrazolo[4,3-d]pyrimidin-7-one] | > 64 | >64 | 4 (≈ 7.75 µM) | 1 (≈ 1.94 µM) | 4 (≈ 7.75 µM) | 4 (≈ 7.75 µM) | 4 (≈ 7.75 µM) |  | 2 (≈ 3.87 µM) | 
10 | O=C(c1cccnc1)N1CCC(n2nc(Cl)c3nc(NCc4ccc(Cl)c(Cl)c4)[nH]c(=O)c32)CC1 [Compound 318, 3-Chloro-5-[(3,4-dichlorophenyl)methylamino]-1-[1-(pyridine-3-carbonyl)-4-piperidyl]-6H-pyrazolo[4,3-d]pyrimidin-7-one] | > 64 | >64 | 2 (≈ 3.75 µM) | 1 (≈ 1.88 µM) | 4 (≈ 7.51 µM) | 2 (≈ 3.75 µM) | 2 (≈ 3.75 µM) |  | 1 (≈ 1.88 µM) | 
11 | Cl.O=C(c1ccncc1)N1CCC(n2nc(F)c3nc(NCc4ccc(F)c(F)c4)[nH]c(=O)c32)CC1 [Compound 319, 5-((3,4-difluorobenzyl)amino)-3-fluoro-1-(1-isonicotinoylpiperidin-4-yl)-1H-pyrazolo[4,3-d]pyrimidin-7(6H)-one hydrochloride] | > 64 | >64 | 8 | 2 | 4 | 8 | 8 |  | 4 | 
12 | O=c1c2c(cnn2CCOCCO)nc(NCc2ccc(Cl)c(Cl)c2)n1COP(=O)(O)O [Compound 320, (5-((3,4-dichlorobenzyl)amino)-1-(2-(2-hydroxyethoxy)ethyl)-7-oxo-1H-pyrazolo[4,3-d]pyrimidin-6(7H)-yl)methyl dihydrogen phosphate] | > 64 | >64 | > 64 | > 64 | > 64 | > 64 | > 64 |  | > 64 | 

From US10723741B1, “DNA polymerase IIIC inhibitors and use thereof” (Acurx Pharmaceuticals, LLC, priority 2018, dated 2020)
